# Where two headings read alike, the source gives them in different places.
# Assays:
# Format in all cases: in vivo
# [1] = test system: Corn Earworm (CEW) (Helicoverpa zea); experiment: Bioassay on corn earworm (CEW), 128-well diet tray assay; details: 168 h, read-out: % Mortality CEW 50 μg/cm^2
# Procedure: (§1) Certain molecules disclosed in this document were tested against BAW and CEW using procedures described in the following examples. In the reporting of the results, the “BAW & CEW Rating Table” was used (See Table Section).
# Bioassays on CEW (Helicoverpa zea)
# Bioassays on CEW were conducted using a 128-well diet tray assay. One to five second instar CEW larvae were placed in each well (3 mL) of the diet tray that had been previously filled with 1 mL of artificial diet to which 50 μg/cm^2 of the test compound (dissolved in 50 μL of 90:10 acetone-water mixture) had been applied (to each of eight wells) and then allowed to dry. Trays were covered with a clear self-adhesive cover, and held at 25° C., 14:10 light-dark for five to seven days. Percent mortality was recorded for the larvae in each well; activity in the eight wells was then averaged. The results are indicated in the table entitled “Table: Bio Results” (See Table Section).
# [2] = test system: Green Peach Aphid (GPA) (Myzus persicae); experiment: Bioassay on green peach aphid (GPA), foliar spray on cabbage seedlings; details: 72 h, read-out: % Mortality GPA 200 ppm
# Procedure: Certain molecules disclosed in this document were tested against GPA using procedures described in the following example. In the reporting of the results, the “GPA Rating Table” was used (See Table Section).
# Cabbage seedlings grown in 3-inch pots, with 2-3 small (3-5 cm) true leaves, were used as test substrate. The seedlings were infested with 20-50 GPA (wingless adult and nymph stages) one day prior to chemical application. Four pots with individual seedlings were used for each treatment. Test compounds (2 mg) were dissolved in 2 mL of acetone/methanol (1:1) solvent, forming stock solutions of 1000 ppm test compound. The stock solutions were diluted 5× with 0.025% Tween 20 in H2O to obtain the solution at 200 ppm test compound. A hand-held aspirator-type sprayer was used for spraying a solution to both sides of […] leaves until runoff. Reference plants (solvent check) were sprayed with the diluent only containing 20% by volume of acetone/methanol (1:1) solvent. Treated plants were held in a holding room for three days at approximately 25° C. and ambient relative humidity (RH) prior to grading. Evaluation was conducted by counting the number of live aphids per plant under a microscope. Percent Control was measured by using Abbott's correction formula (W. S. Abbott, “A Method of Computing the Effectiveness of an Insecticide” J. Econ. Entomol. 18 (1925), pp. 265-267) as follows. Corrected % Control=100*(X−Y)/X • where • X=No. of live aphids on solvent check plants and • Y=No. of live aphids on treated plants
# [3] = test system: Beet Armyworm (BAW) (Spodoptera exigua); experiment: Bioassay on beet armyworm (BAW), 128-well diet tray assay; details: 168 h, read-out: % Mortality BAW 50 μg/cm^2
# Procedure: as §1
# Bioassays on BAW (Spodoptera exigua)
# Bioassays on BAW were conducted using a 128-well diet tray assay. One to five second instar BAW larvae were placed in each well (3 mL) of the diet tray that had been previously filled with 1 mL of artificial diet to which 50 μg/cm^2 of the test compound (dissolved in 50 μL of 90:10 acetone-water mixture) had been applied (to each of eight wells) and then allowed to dry. Trays were covered with a clear self-adhesive cover, and held at 25° C., 14:10 light-dark for five to seven days. Percent mortality was recorded for the larvae in each well; activity in the eight wells was then averaged. The results are indicated in the table entitled “Table: Bio Results” (See Table Section).
# [4] = 50 μg/cm^2 on artificial diet, second instar larvae, 25° C., five to seven days, average of eight wells
# [5] = 200 ppm foliar spray on cabbage seedlings, graded after three days, Abbott corrected % control
SMILES,mortality at 50 µg/cm2 [1] [%],mortality at 200 ppm ([2]; foliar) [%],mortality at 50 µg/cm2 [3] [%],"mortality at 50 µg/cm2 [1, 4] [%]","mortality at 200 ppm [2, 5] [%]","mortality at 50 µg/cm2 [3, 4] [%]"
"CC(C)(C)c1ccccc1OC(=O)NC1CC1c1ccc(-c2ncn(-c3ccc(OC(F)(F)F)cc3)n2)cc1 (stereo not drawn) [Compound 24, 2-tert-Butylphenyl 2-(4-(1-(4-(trifluoromethoxy)phenyl)-1H-1,2,4-triazol-3-yl)phenyl)-cyclopropylcarbamate]",0,0 to 80,50 to 100,,,
"CC(OC(=O)NC1CC1c1ccc(-c2ncn(-c3ccc(OC(F)(F)F)cc3)n2)cc1)c1ccccc1 (stereo not drawn) [Compound 19, 1-Phenylethyl 2-(4-(1-(4-(trifluoromethoxy)phenyl)-1H-1,2,4-triazol-3-yl)phenyl)-cyclopropylcarbamate]",50 to 100,0 to 80,0,,,
"Cc1ccc(NC(=S)NC2CC2c2ccc(-c3ncn(-c4ccc(OC(F)(F)F)cc4)n3)cc2)c(C)c1 (stereo not drawn) [Compound 11, 1-(2,4-Dimethylphenyl)-3-(2-(4-(1-(4-(trifluoromethoxy)phenyl)-1H-1,2,4-triazol-3-yl)phenyl)cyclopropyl)thiourea]",,,,50 to 100,0 to 80,50 to 100
"O=C(Nc1c(Cl)cccc1Cl)NC1CC1c1ccc(-c2ncn(-c3ccc(OC(F)(F)F)cc3)n2)cc1 (stereo not drawn) [Compound 31, 1-(2,6-Dichlorophenyl)-3-(2-(4-(1-(4-(trifluoromethoxy)phenyl)-1H-1,2,4-triazol-3-yl)phenyl)cyclopropyl)urea]",,,,0,0,0
"Cc1cc(C)c(OC(=O)NC2CC2c2ccc(-c3ncn(-c4ccc(OC(F)(F)F)cc4)n3)cc2)c(C)c1 (stereo not drawn) [Compound 26, Mesityl 2-(4-(1-(4-(trifluoromethoxy)phenyl)-1H-1,2,4-triazol-3-yl)phenyl)cyclopropyl-carbamate]",0 to 50,0,50 to 100,,,
"FC(F)(F)Oc1ccc(-n2cnc(-c3ccc(C4CC4NC(=S)Nc4ccc(C(F)(F)F)cc4)cc3)n2)cc1 (stereo not drawn) [Compound 8, 1-(2-{4-[1-(4-Trifluoromethoxyphenyl)-1H-[1,2,4]triazol-3-yl]phenyl}-cyclopropyl)-3-(4-trifluoromethylphenyl)thiourea]",,,,50 to 100,0 to 80,50 to 100
"COc1ccc(NC(=S)NC2CC2c2ccc(-c3ncn(-c4ccc(OC(F)(F)F)cc4)n3)cc2)c(OC)c1 (stereo not drawn) [Compound 10, 1-(2,4-Dimethoxyphenyl)-3-(2-{4-[1-(4-trifluoromethoxyphenyl)-1H-[1,2,4]triazol-3-yl]phenyl}cyclopropyl)thiourea]",,,,50 to 100,0 to 80,50 to 100
"CC(C)(C)OC(=O)NC1CC1c1ccc(-c2ncn(-c3ccc(OC(F)(F)F)cc3)n2)cc1 (stereo not drawn) [Compound 17, tert-Butyl 2-(4-(1-(4-(trifluoromethoxy)phenyl)-1H-1,2,4-triazol-3-yl)phenyl)-cyclopropylcarbamate]",,,,50 to 100,0,50 to 100
"O=C(NC1CC1c1ccc(-c2ncn(-c3ccc(OC(F)(F)F)cc3)n2)cc1)Oc1ccccc1C1CCCC1 (stereo not drawn) [Compound 23, 2-Cyclopentylphenyl 2-(4-(1-(4-(trifluoromethoxy)phenyl)-1H-1,2,4-triazol-3-yl)phenyl)-cyclopropylcarbamate]",50 to 100,0 to 80,0,,,
"COc1ccc(NC(=S)NC2CC2c2ccc(-c3ncn(-c4ccc(OC(F)(F)F)cc4)n3)cc2)c(C(C)C)c1 (stereo not drawn) [Compound 13, 1-(2-Isopropyl-4-methoxyphenyl)-3-(2-(4-(1-(4-(trifluoromethoxy)phenyl)-1H-1,2,4-triazol-3-yl)phenyl)cyclopropyl)thiourea]",,,,50 to 100,0,50 to 100
"FC(F)(F)Oc1ccc(-n2cnc(-c3ccc(C4CC4NC(=S)Nc4c(Cl)cccc4Cl)cc3)n2)cc1 (stereo not drawn) [Compound 2, 1-(2,6-Dichlorophenyl)-3-(2-{4-[1-(4-trifluoromethoxyphenyl)-1H-[1,2,4]triazol-3-yl]phenyl}cyclopropyl)thiourea]",,,,50 to 100,0 to 80,50 to 100
"CN(C)c1ccc(NC(=S)NC2CC2c2ccc(-c3ncn(-c4ccc(OC(F)(F)F)cc4)n3)cc2)cc1 (stereo not drawn) [Compound 7, 1-(4-Dimethylaminophenyl)-3-(2-{4-[1-(4-trifluoromethoxyphenyl)-1H-[1,2,4]triazol-3-yl]phenyl}cyclopropyl)thiourea]",,,,50 to 100,0,50 to 100
